Our source for the IC50 values is PMC2661907, “The Proteasome Is a Molecular Target of Environmental Toxic Organotins” (Environmental Health Perspectives, 2008).

The target in this assay is T1, 20S proteasome (chymotrypsin-like activity, β5 subunit) (Oryctolagus cuniculus, UniProt G1T4Q9).
T1 construct: gene PSMB5; purified rabbit 20S proteasome; with other subunits of the 20S proteasome
T1 sequence (G1T4Q9 1-263): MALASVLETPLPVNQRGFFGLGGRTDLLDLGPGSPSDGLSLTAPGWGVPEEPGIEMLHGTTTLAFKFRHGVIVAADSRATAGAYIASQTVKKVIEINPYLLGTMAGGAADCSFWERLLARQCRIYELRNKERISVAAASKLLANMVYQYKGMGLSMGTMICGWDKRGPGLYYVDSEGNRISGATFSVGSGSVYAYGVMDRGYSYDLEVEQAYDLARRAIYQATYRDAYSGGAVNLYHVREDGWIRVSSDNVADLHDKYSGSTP
Kind of assay: fluorogenic peptide CT-like activity assay on purified. It counts as biochemical.

As usually defined, the IC50 is the concentration that inhibits the measured activity by half. Low values mean higher potency, high ones lower potency. The molecule `CCC[CH2][Sn]([Cl])([CH2]CCC)[CH2]CCC` [TBT, tributyltin chloride] gave an IC50 of 15.6 µM. This lies in the double-digit micromolar range.
